Consider three molecules from US9801922B2, “Compositions and methods of treating cancer” (UNIVERSITY OF IOWA RESEARCH FOUNDATION, priority 2011, dated 2017).

Like-named read-outs stand apart in the source and are kept apart here.

One data set relates to A375 melanoma cells. Briefly: MTT survival fraction analysis, A375. Format: cell-based.
A further data set concerns MB231 cells. Conditions: 24 hrs.
Data set [1] has as its system Hec50co human endometrial cancer cells. Conditions: 2 uM, 24 hrs.
Procedure: Hec50co human endometrial cancer cells were treated with 0.5 μM, 1.0 and 2.0 μM azido-decylTPP and bis-TPP and incubated for 24 hrs. DMSO was added to control dishes to a final concentration of 0.1%. Following a 24 hr. incubation period, cells were plated at densities of 200, 400, 600, 800, 2,000, 5,000, and 10,000 cells per dish and incubated for 2 weeks. After incubation, cells were stained with Coomassie blue and counted under a light microscope. Survival fraction was calculated by dividing the number of colonies counted following treatment by the product of the number of cells plated and plating efficiency. Error bars represent uncertainties of N=2 experiments.

Procedure for MB231 cells: MB231 cells were treated with 0.5 μM, 1.0 μM, and 2.0 μM azido-decylTPP and bis-TPP and incubated for 24 hrs. DMSO was added to control dishes to a final concentration of 0.1%. Following a 24 hr. incubation period, cells were plated at densities of 200, 400, 600, 800, and 2,000 cells per dish and incubated for 2 weeks. After incubation, cells were stained with Coomassie blue and counted under a light microscope. Survival fraction was calculated by dividing the number of colonies counted following treatment by the product of the number of cells plated and plating efficiency.

Regarding `CCCCC[P+](c1ccccc1)(c1ccccc1)c1ccccc1` [pentyl-TPP], the “cytotoxicity in the absence of BSO, in words” value in the data set with A375 melanoma cells is given as “no effect”. Besides, the survival fraction in the data set on A375 melanoma cells (in the presence of BSO, 2 μM) is listed as 70%. For the same molecule, the “cytotoxicity in the presence of BSO, in words” value in the data set with A375 melanoma cells (up to 2 μM) is given as “little cytotoxicity”.
In the case of `[N-]=[N+]=NCCCCCCCCCC[P+](c1ccccc1)(c1ccccc1)c1ccccc1` [azido-DTPP, (10-azidodecyl)triphenylphosphonium], the survival fraction in the data set with MB231 cells (0.5 uM) is listed as 55%; in the data set with MB231 cells (2 uM) it was 10%; in data set [1] it was 24%.
For “decane-1,10-diylbis(triphenylphosphonium) [bis-DTPP]”, in that order: 90%, 82% and 66%.
